Source: patent US20160008297A1, “COMPOUNDS FOR PREVENTING, REDUCING AND/OR ALLEVIATING ITCHY SKIN CONDITION(S)” (B.R.A.I.N. Biotechnology Research And Information Network AG, priority 2012, published 2016)

target: T1, PAR-2 (Homo sapiens, UniProt P55085); assay: Cell-based calcium assay (Fluo-4 AM) for PAR-2 antagonists, SLIGRL-evoked signal; conditions: in the presence of 2 μM SLIGRL, HEK293 cells; read-out: IC50 of PAR-2 antagonism (inhibition of SLIGRL induced PAR-2 activation)
T1 construct: Human embryonic kidney 293 cells (HEK293) endogenously expressing PAR-2; endogenous in cells; host or cells: HEK293
T1 sequence (P55085 26-397): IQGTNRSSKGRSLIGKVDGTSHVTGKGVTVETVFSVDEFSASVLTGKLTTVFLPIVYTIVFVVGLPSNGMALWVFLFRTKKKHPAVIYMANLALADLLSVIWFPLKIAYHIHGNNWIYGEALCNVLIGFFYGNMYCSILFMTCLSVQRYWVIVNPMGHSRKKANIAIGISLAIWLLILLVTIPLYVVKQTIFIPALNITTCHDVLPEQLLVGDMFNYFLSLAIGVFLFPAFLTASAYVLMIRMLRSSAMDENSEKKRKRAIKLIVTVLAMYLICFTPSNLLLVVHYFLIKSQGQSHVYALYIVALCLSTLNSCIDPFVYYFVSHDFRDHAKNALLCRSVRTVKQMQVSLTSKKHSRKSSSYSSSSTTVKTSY
Method: Cell-based calcium assay for the identification of PAR-2 antagonists based on fluorescent dye Fluo4-AM
Functional modulation of PAR-2 by the tested compounds was measured and quantified using the calcium sensitive fluorescent probe Fluo-4 AM on a fluorescence microplate reader. Activation of PAR-2 by an agonist (SLIGRL) led to an increase in the intracellular calcium concentration and thus an increase in fluorescence intensity.
Human embryonic kidney 293 cells (HEK293) endogenously expressing PAR-2 were cultured in DMEM (high glucose) supplemented with tetracycline-free FCS (10% v/v), L-glutamine (4 mM), blasticidin (15 μg/ml), zeocin (100 μg/ml) and puromycin (2 μg/ml) in a water-saturated atmosphere at 37° C. and 5% CO2.
Cells were seeded onto 96-well clear-bottom black-walled assay plates at a density of 45,000 cells per well in 100 μl of cell culture medium. Intracellular calcium increase in the living cells due to receptor activation was monitored 24 h later using the calcium sensitive fluorescent probe Fluo-4 AM on a fluorescence microplate reader (FlexStation® system, Molecular Devices). Therefore 100 μl Krebs-HEPES (KH) buffer (118 mM NaCl; 4.7 mM KCl; 1.3 mM CaCl2; 1.2 mM MgSO4; 1.2 mM KH2PO4; 4.2 mM NaHCO3; 10 mM Hepes, pH 7.4) supplemented with sulfinpyrazone (250 μM) and Fluo-4 AM (4 μM) were added and the cells were incubated for an additional hour in a water-saturated atmosphere at 37° C. and 5% CO2.
Medium was replaced with 150 μl KH buffer supplemented with sulfinpyrazone (250 μM). Subsequently, 50 μl KH buffer supplemented with the screening compounds (final concentration of 10 μM under measurement conditions) or control substances were added and the cells were incubated for 10 min. under assay conditions in the microplate reader. Changes in fluorescence were recorded at 37° C. after addition of 50 μl KH buffer supplemented with the PAR-2 peptide agonist SLIGRL (final concentration of 2 μM under measurement conditions).
Calcium mobilization was quantified as the change of peak fluorescence (ΔF) over the baseline level (F). The data was analyzed with the software of the microplate reader. Potential PAR-2 antagonists were tested in an effective range of 1-100 μM for their capacity to reduce the SLIGRL-evoked signal.
A cellular in vitro assay was developed with human embryonic kidney 293 cells (HEK293) endogenously expressing PAR-2. The PAR-2 activating peptide SLIGRL (EC50: ˜0.6 μM) was used as an agonistic stimulus with subsequent Fluo-4 dependent intracellular calcium detection (calcium imaging).

IC50 [µM] | Structure (SMILES)
67.8 | COc1ccc(CCC(=O)CC(=O)CCc2ccc(OC)cc2)cc1 [formula 3, 1,7-Bis-(4-methoxyphenyl)-3,5-heptanedione]
25 to 100 | COc1ccc(/C=C/C(=O)CC(=O)/C=C/c2ccc(OC)cc2)cc1 [formula 7, 1,7-Bis-(4-methoxyphenyl)-hepta-1,6-dien-3,5-dione]
25 to 100 | COc1cc(/C=C/C(=O)CC(=O)/C=C/c2ccc(O)c(OC)c2)ccc1O [formula 8, 1,7-Bis-(4-hydroxy-3-methoxyphenyl)-hepta-1,6-dien-3,5-dione]

Structure (SMILES) | IC50 [µM]
COc1cc(CCC(=O)CC(=O)CCc2ccc(O)c(OC)c2)ccc1O [formula 4, 1,7-Bis-(4-hydroxy-3-methoxyphenyl)-3,5-heptanedione] | 25 to 100
